Measurements reported in patent US3962282A, “Juvenile hormone mimics” (priority 1974, dated 1976).
“And” between values parts separate entries of the source, which are not always exact repeats. Identical values can stand only once.

Tests used:
[1] = test system: milkweed bug; assay: topical application to milkweed bug, fourth nymphal stage, maturation inhibition; format: in vivo; settings: rating scale 0-3
In short: (§1)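 Compounds applied topically, 1 μL acetone solution at 10%, 1% or 0.5%, to ten specimens per insect per concentration, alongside acetone and untreated controls; scored after about 8–10 days. Juvenile/adult characteristics rated 0–3 (Tenebrio 0–4), ≥2 meaning unable to reproduce; unreported specimens died during metamorphosis.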

[2] = test system: Mexican bean beetle; assay: topical application to Mexican bean beetle, fourth larval stage, maturation inhibition; format: in vivo; settings: rating scale 0-3
In short: as §1

[3] = test system: Aedes aegypti mosquito larvae; assay: mosquito larvae in aqueous solutions, adult emergence; format: in vivo; settings: for number of adults, Jar 1 Dead / number of adults, Jar 1 Living / number of adults, Jar 2 Dead / number of adults, Jar 2 Living: 13 days
Procedure: Two compounds, 7,8-epoxy-4-ethyl-8-methyl-1-(3,4-methylenedioxyphenyl)-3-decene and 2,6-diemthyl-9-(3,4-methylenedioxyphenyl)-2,6-nonadiene, were tested against Aedes aegypti mosquito larvae in aqueous solutions at concentrations of 10, 5, 2.5. 1.25 and 0.625 ppm. each. Ninety milliliters of each solution were placed in a pint jar and 30 five-day-old mosquito larvae were added to each jar. Two tests were run at each concentration and control tests employing only solvent with no compound were also run. Food was added to each jar, the jars were covered with cloths, and maintained at 29°C. until adults emerged in the control jars. The number of adults in the test jars was determined.

[4] = test system: cockroach nymphs (Blattella germanica); assay: German cockroach nymphs in treated glass jars; format: in vivo; settings: for reproduction: four months
Procedure: Test jars were prepared by adding 2 ml. of an acetone solution containing 10 mg., 20 mg., or 100 mg. of 2,6-dimethyl-9-(3,4-methylenedioxyphenyl)-2,6-nonadiene to 1 gallon glass jars and allowing the acetone to evaporate. The jars were equipped with watering bottles, food, and paper towels. There were two jars for each rate of test compound and two jars for nontreated controls. To each jar were added 20 40-day-old cockroach nymphs (Blattella germanica). […] Thus, the nonadiene at 100 mg. had prevented reproduction for 4 months.

[5] = test system: German cockroach nymphs; assay: topical application to 50-day-old German cockroach nymphs; format: in vivo, Blattella germanica
Text: In another test, the nonadiene was applied topically to 50-day-old German cockroach nymphs. The compound was applied in acetone as a […], or 0.5 percent solution. Acetone controls and nontreated controls were also run. The roaches were then maintained in the laboratory until the controls reproduced. […] The 1 percent and 0.5 percent treatments did reproduce.

[6] = test system: Housefly (Musca domestica); assay: housefly rearing diet test, percent adult emergence; format: in vivo
Procedure: Test compounds were mixed with the rearing diet of houseflys at various levels. The prepared diet was then placed in an 8 oz. drinking cup. Three cups were prepared for each treatment level and three control cups. Housefly eggs (Musca domestica) were placed in each cup and they were maintained at 28°C. for 1 week. Fifty pupae were then removed from each cup and placed in a petri dish. After the control pupae had emerged into adults, the percent emergence in each dish was recorded. The test compounds used were 7,8-epoxy-4-ethyl-8-methyl-1-(3,4-methylenedioxyphenyl)-3-decene, 4,8-dimetyl-1-(3,4-methylenedioxyphenyl)-2,6-nonadiene and 2,6-dichloro-2,6-dimethyl-9-(3,4-methylenedioxyphenyl)nonane.

[7] = test system: Melon aphids (Aphis gossypi); assay: melon aphids on dipped squash plants; format: in vivo; settings: 200 ppm, six days
Procedure: Young squash plants were dipped for 30 seconds in aqueous solutions containing 200, 100, and 50 ppm. of 2.6-dimethyl-9-(3,4-methylenedioxyphenyl)-2,6-nonadiene. Three plants were treated at each concentration and three plants were used as controls. After the plants had dried, ten adult aphids (Aphis gossypi) were placed on each plant and allowed to feed. The plants were maintained under laboratory conditions. Twenty-four hours after they were placed on the plants, all adults were removed, leaving young nymphs. Six days after treatment, the total number of aphids on each plant was determined.

[8] = test system: Mexican bean beetle larvae; assay: soil drench of bean plants with Mexican bean beetle larvae; format: in vivo; settings: scale 0-3
Procedure: Bean plants of the Bountiful variety were placed in soil and allowed to grow with 10 Mexican bean beetle larvae on each cluster. To the soil around each plant was added 200 ml. of a solution containing 2,6-dimethyl-9-(3,4-methylenedioxyphenyl)-2,6-nonadiene. The soil was then covered with aluminum foil to prevent the larvae from coming in contact with the compound. Three different concentrations of compound were applied. These were prepared from a 48 percent emulsifiable concentrate by diluting 10 ml., 4 ml., and 2 ml. of the concentrate to a volume of 200 ml. with water. A control using 200 ml. of just water and another using no drench were also run. The results are tabulated below using the same rating system as described earlier for the primary screening test agains Mexican bean beetle.

CC(C)=CCCC(C)=CCCc1ccc2c(c1)OCO2 [2,6-dimethyl-9-(3,4-methylenedioxyphenyl)-2,6-nonadiene]
number of specimens in rating 3 ([1]; 0.5%): 10 specimens | number of specimens in rating 3 ([1]; 1%): 10 specimens | number of specimens in rating 3 ([1]; 10%): 5 specimens | number of specimens in rating 3 ([2]; 0.5%): 9 specimens | number of specimens in rating 3 ([2]; 1%): 10 specimens | number of specimens in rating 3 ([2]; 10%): 1 specimens | number of adults, Jar 1 Dead ([3]; 0.625 ppm): 21 | number of adults, Jar 1 Living ([3]; 0.625 ppm): 1 | number of adults, Jar 2 Dead ([3]; 0.625 ppm): 21 | number of adults, Jar 2 Living ([3]; 0.625 ppm): 0 | number of adults, Jar 1 Dead ([3]; 1.25 ppm): 1 | number of adults, Jar 1 Living ([3]; 1.25 ppm): 3 | number of adults, Jar 2 Dead ([3]; 1.25 ppm): 10 | number of adults, Jar 2 Living ([3]; 1.25 ppm): 1 | number of adults, Jar 1 Dead ([3]; 2.5 ppm): 0 | number of adults, Jar 1 Living ([3]; 2.5 ppm): 0 | number of adults, Jar 2 Dead ([3]; 2.5 ppm): 1 | number of adults, Jar 2 Living ([3]; 2.5 ppm): 0 | number of adults, Jar 1 Dead ([3]; 5 ppm): 0 | number of adults, Jar 1 Living ([3]; 5 ppm): 0 | number of adults, Jar 2 Dead ([3]; 5 ppm): 0 | number of adults, Jar 2 Living ([3]; 5 ppm): 0 | number of adults, Jar 1 Dead ([3]; 10 ppm): 0 | number of adults, Jar 1 Living ([3]; 10 ppm): 0 | number of adults, Jar 2 Dead ([3]; 10 ppm): 0 | number of adults, Jar 2 Living ([3]; 10 ppm): 0 | control ([3]; at concentrations as low as 2.5 ppm): 100% | live adults in the jars ([3]; nonadiene at 10, 5, and 2.5 ppm, decene at any concentration): never any live adults | state of adults and nymphs ([4]; 10 mg, about 2 1/2 months): normal adults and newly hatched nymphs | state of adults and nymphs ([4]; 20 mg, about 2 1/2 months): normal adults and newly hatched nymphs | duration of prevented reproduction ([4]; 100 mg): 4 months | newly hatched nymphs ([4]; 100 mg, about 2 1/2 months): did not contain newly hatched nymphs | wings of adults ([4]; 100 mg, about 2 1/2 months): all adults in the jars had deformed wings | reproduction ([4]; 100 mg): no reproduction | reproduction ([4]; lower rate jars (10 and 20 mg)): large numbers of newly hatched nymphs | reproduction ([5]; 0.5 percent): did reproduce | reproduction ([5]; 1 percent): did reproduce | reproduction ([5]; 10 percent solution): did not reproduce | wing formation ([5]; 10 percent solution): normal wing formation | percent adult emergence, Cup 1 ([6]; 100 ppm in diet): 90% | percent adult emergence, Cup 2 ([6]; 100 ppm in diet): 30% | percent adult emergence, Cup 3 ([6]; 100 ppm in diet): 10% | control ([6]; 500 ppm): 100% | percent adult emergence, Cup 1 ([6]; 500 ppm in diet): 0% | percent adult emergence, Cup 2 ([6]; 500 ppm in diet): 0% | percent adult emergence, Cup 3 ([6]; 500 ppm in diet): 0% | number of aphids per plant, Total [7]: 15 and 13 and 22 | number in rating 0 ([8]; 2 ml. concentrate/200 ml.): 8 | number in rating 3 ([8]; 2 ml. concentrate/200 ml.): 2 | number in rating 0 ([8]; 4 ml. concentrate/200 ml.): 2 | number in rating 3 ([8]; 4 ml. concentrate/200 ml.): 8 | number in rating 0 ([8]; 10 ml. concentrate/200 ml.): 1 | number in rating 3 ([8]; 10 ml. concentrate/200 ml.): 9
